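Tested at 5 concentrations; 48 h exposure; 96-well plates; endpoints linearly interpolated, else capped at highest concentration. At the GI50, growth is halved.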 Active and inactive are the calls of the source. Rule as the data show it: active = GI50 up to about 1.1 µM and inactive = higher.
Legend:
Test in all cases: DTP human tumour cell line panel, 48 h
786-0 = test system: 786-0
A498 = test system: A498
A549 = test system: A549
ACHN = test system: ACHN
BT-549 = test system: BT-549
CAKI-1 = test system: CAKI-1
COLO 205 = test system: COLO 205
DU-145 = test system: DU-145
EKVX = test system: EKVX
HCC 2998 = test system: HCC 2998
HCT-116 = test system: HCT-116
HCT-15 = test system: HCT-15
HL-60 = test system: HL-60
HOP-62 = test system: HOP-62
HOP-92 = test system: HOP-92
HT-29 = test system: HT-29
Hs-578T = test system: Hs-578T
IGROV-1 = test system: IGROV-1
K562 = test system: K562
KM12 = test system: KM12
LOX IMVI = test system: LOX IMVI
M14 = test system: M14
MCF7 = test system: MCF7
MDA-MB-231 = test system: MDA-MB-231
MDA-MB-435 = test system: MDA-MB-435
MDA-N = test system: MDA-N
Malme-3M = test system: Malme-3M
NCI-H226 = test system: NCI-H226
NCI-H23 = test system: NCI-H23
NCI-H460 = test system: NCI-H460
NCI-H522 = test system: NCI-H522
NCI/ADR-RES = test system: NCI/ADR-RES
OVCAR-3 = test system: OVCAR-3
OVCAR-4 = test system: OVCAR-4
OVCAR-5 = test system: OVCAR-5
OVCAR-8 = test system: OVCAR-8
PC-3 = test system: PC-3
RPMI-8226 = test system: RPMI-8226
RXF 393 = test system: RXF 393
SF-268 = test system: SF-268
SF-295 = test system: SF-295
SK-MEL-28 = test system: SK-MEL-28
SK-MEL-2 = test system: SK-MEL-2
SK-MEL-5 = test system: SK-MEL-5
SK-OV-3 = test system: SK-OV-3
SN12C = test system: SN12C
SNB-19 = test system: SNB-19
SNB-75 = test system: SNB-75
SW-620 = test system: SW-620
T47D = test system: T47D
TK-10 = test system: TK-10
U-251 = test system: U-251
UACC-257 = test system: UACC-257
UACC-62 = test system: UACC-62
UO-31 = test system: UO-31
CCRF-CEM = test system: CCRF-CEM
MOLT-4 = test system: MOLT-4
SF-539 = test system: SF-539
SR = test system: SR

## O=C(COc1ccc(OCC(=O)N2C(=O)CC/C2=N\c2ccc(Cl)cc2)cc1)N1C(=O)CS/C1=N\c1ccc(Cl)cc1
786-0
  GI50: > 100 µM (inactive)
A498
  GI50: > 100 µM (inactive)
A549
  GI50: 26.4 µM (inactive)
ACHN
  GI50: 49.8 µM (inactive)
BT-549
  GI50: 57.4 µM (inactive)
CAKI-1
  GI50: > 100 µM (inactive)
COLO 205
  GI50: 47.9 µM (inactive)
DU-145
  GI50: > 100 µM (inactive)
EKVX
  GI50: 76.9 µM (inactive)
HCC 2998
  GI50: > 100 µM (inactive)
HCT-116
  GI50: 93.8 µM (inactive)
HCT-15
  GI50: > 100 µM
HL-60
  GI50: 37.2 µM (inactive)
HOP-62
  GI50: 73.1 µM (inactive)
HOP-92
  GI50: > 100 µM (inactive)
HT-29
  GI50: 48.4 µM (inactive)
Hs-578T
  GI50: > 100 µM (inactive)
IGROV-1
  GI50: 47.6 µM (inactive)
K562
  GI50: 66.4 µM (inactive)
KM12
  GI50: 75.2 µM (inactive)
LOX IMVI
  GI50: 25.2 µM (inactive)
M14
  GI50: 89.7 µM (inactive)
MCF7
  GI50: 35.3 µM (inactive)
MDA-MB-231
  GI50: 26.9 µM (inactive)
MDA-MB-435
  GI50: > 100 µM (inactive)
MDA-N
  GI50: > 100 µM (inactive)
Malme-3M
  GI50: 77.3 µM (inactive)
NCI-H226
  GI50: > 100 µM (inactive)
NCI-H23
  GI50: 42 µM (inactive)
NCI-H460
  GI50: 72.6 µM (inactive)
NCI-H522
  GI50: 63.4 µM (inactive)
NCI/ADR-RES
  GI50: > 100 µM (inactive)
OVCAR-3
  GI50: 61.2 µM (inactive)
OVCAR-4
  GI50: 75.3 µM (inactive)
OVCAR-5
  GI50: > 100 µM (inactive)
OVCAR-8
  GI50: 47.5 µM (inactive)
PC-3
  GI50: 47.1 µM (inactive)
RPMI-8226
  GI50: 46.1 µM (inactive)
RXF 393
  GI50: > 100 µM (inactive)
SF-268
  GI50: > 100 µM (inactive)
SF-295
  GI50: 52.8 µM (inactive)
SK-MEL-28
  GI50: > 100 µM (inactive)
SK-MEL-2
  GI50: > 100 µM (inactive)
SK-MEL-5
  GI50: 76 µM (inactive)
SK-OV-3
  GI50: > 100 µM (inactive)
SN12C
  GI50: > 100 µM (inactive)
SNB-19
  GI50: 63.2 µM (inactive)
SNB-75
  GI50: 18.5 µM (inactive)
SW-620
  GI50: > 100 µM (inactive)
T47D
  GI50: 14.2 µM (inactive)
TK-10
  GI50: > 100 µM (inactive)
U-251
  GI50: 29.5 µM (inactive)
UACC-257
  GI50: 56 µM (inactive)
UACC-62
  GI50: > 100 µM (inactive)
UO-31
  GI50: 37.2 µM (inactive)

## CC(=O)OCC1OC(OC2CC3C(C)(C)C(O)CC[C@]3(C)C3CCC45CC4(CCC5[C@@H](C)CC(O)C(O)C(C)(C)O)[C@]23C)C(O)C(O)C1O (stereo not given in full)
786-0
  GI50: > 10 µM (inactive)
A498
  GI50: > 10 µM (inactive)
A549
  GI50: > 10 µM (inactive)
ACHN
  GI50: > 10 µM (inactive)
BT-549
  GI50: > 10 µM (inactive)
CAKI-1
  GI50: > 10 µM (inactive)
CCRF-CEM
  GI50: > 10 µM (inactive)
COLO 205
  GI50: > 10 µM (inactive)
DU-145
  GI50: > 10 µM (inactive)
EKVX
  GI50: > 10 µM (inactive)
HCC 2998
  GI50: > 10 µM (inactive)
HCT-116
  GI50: > 10 µM (inactive)
HCT-15
  GI50: > 10 µM
HL-60
  GI50: > 10 µM (inactive)
HOP-62
  GI50: > 10 µM (inactive)
HOP-92
  GI50: > 10 µM (inactive)
HT-29
  GI50: > 10 µM (inactive)
Hs-578T
  GI50: > 10 µM (inactive)
IGROV-1
  GI50: > 10 µM (inactive)
K562
  GI50: > 10 µM (inactive)
KM12
  GI50: > 10 µM (inactive)
LOX IMVI
  GI50: > 10 µM (inactive)
M14
  GI50: > 10 µM (inactive)
MCF7
  GI50: > 10 µM (inactive)
MDA-MB-231
  GI50: > 10 µM (inactive)
MDA-MB-435
  GI50: > 10 µM (inactive)
MDA-N
  GI50: > 10 µM (inactive)
MOLT-4
  GI50: > 10 µM (inactive)
Malme-3M
  GI50: > 10 µM (inactive)
NCI-H226
  GI50: > 10 µM (inactive)
NCI-H23
  GI50: > 10 µM (inactive)
NCI-H460
  GI50: > 10 µM (inactive)
NCI-H522
  GI50: > 10 µM (inactive)
NCI/ADR-RES
  GI50: > 10 µM (inactive)
OVCAR-3
  GI50: > 10 µM (inactive)
OVCAR-4
  GI50: > 10 µM (inactive)
OVCAR-5
  GI50: > 10 µM (inactive)
OVCAR-8
  GI50: > 10 µM (inactive)
PC-3
  GI50: > 10 µM (inactive)
RPMI-8226
  GI50: > 10 µM (inactive)
RXF 393
  GI50: > 10 µM (inactive)
SF-268
  GI50: > 10 µM (inactive)
SF-295
  GI50: > 10 µM (inactive)
SF-539
  GI50: > 10 µM (inactive)
SK-MEL-28
  GI50: > 10 µM (inactive)
SK-MEL-2
  GI50: > 10 µM (inactive)
SK-MEL-5
  GI50: > 10 µM (inactive)
SK-OV-3
  GI50: > 10 µM (inactive)
SN12C
  GI50: > 10 µM (inactive)
SNB-19
  GI50: > 10 µM (inactive)
SNB-75
  GI50: > 10 µM (inactive)
SW-620
  GI50: > 10 µM (inactive)
T47D
  GI50: > 10 µM (inactive)
TK-10
  GI50: > 10 µM (inactive)
U-251
  GI50: > 10 µM (inactive)
UACC-257
  GI50: > 10 µM (inactive)
UACC-62
  GI50: > 10 µM (inactive)
UO-31
  GI50: > 10 µM (inactive)

## COc1ccc(C2SC(=N)Nc3c2c(C)nn3C(=O)c2ccc(Cl)cc2)cc1OC (stereo not given)
786-0
  GI50: > 10 µM (inactive)
A549
  GI50: > 10 µM (inactive)
ACHN
  GI50: > 10 µM (inactive)
BT-549
  GI50: > 10 µM (inactive)
CAKI-1
  GI50: > 10 µM (inactive)
CCRF-CEM
  GI50: > 10 µM (inactive)
COLO 205
  GI50: > 10 µM (inactive)
DU-145
  GI50: > 10 µM (inactive)
EKVX
  GI50: > 10 µM (inactive)
HCC 2998
  GI50: > 10 µM (inactive)
HCT-116
  GI50: > 10 µM (inactive)
HCT-15
  GI50: > 10 µM
HL-60
  GI50: > 10 µM (inactive)
HOP-62
  GI50: > 10 µM (inactive)
HOP-92
  GI50: > 10 µM (inactive)
HT-29
  GI50: > 10 µM (inactive)
Hs-578T
  GI50: > 10 µM (inactive)
IGROV-1
  GI50: > 10 µM (inactive)
K562
  GI50: > 10 µM (inactive)
KM12
  GI50: > 10 µM (inactive)
LOX IMVI
  GI50: > 10 µM (inactive)
M14
  GI50: > 10 µM (inactive)
MCF7
  GI50: > 10 µM (inactive)
MDA-MB-231
  GI50: > 10 µM (inactive)
MDA-MB-435
  GI50: > 10 µM (inactive)
MDA-N
  GI50: > 10 µM (inactive)
MOLT-4
  GI50: > 10 µM (inactive)
Malme-3M
  GI50: > 10 µM (inactive)
NCI-H226
  GI50: > 10 µM (inactive)
NCI-H23
  GI50: > 10 µM (inactive)
NCI-H460
  GI50: > 10 µM (inactive)
NCI-H522
  GI50: > 10 µM (inactive)
NCI/ADR-RES
  GI50: > 10 µM (inactive)
OVCAR-3
  GI50: > 10 µM (inactive)
OVCAR-4
  GI50: > 10 µM (inactive)
OVCAR-5
  GI50: > 10 µM (inactive)
OVCAR-8
  GI50: > 10 µM (inactive)
PC-3
  GI50: > 10 µM (inactive)
RPMI-8226
  GI50: > 10 µM (inactive)
RXF 393
  GI50: > 10 µM (inactive)
SF-268
  GI50: > 10 µM (inactive)
SF-295
  GI50: > 10 µM (inactive)
SF-539
  GI50: > 10 µM (inactive)
SK-MEL-28
  GI50: > 10 µM (inactive)
SK-MEL-2
  GI50: > 10 µM (inactive)
SK-MEL-5
  GI50: > 10 µM (inactive)
SK-OV-3
  GI50: > 10 µM (inactive)
SN12C
  GI50: > 10 µM (inactive)
SNB-19
  GI50: > 10 µM (inactive)
SNB-75
  GI50: > 10 µM (inactive)
SR
  GI50: > 10 µM (inactive)
SW-620
  GI50: > 10 µM (inactive)
T47D
  GI50: > 10 µM (inactive)
TK-10
  GI50: > 10 µM (inactive)
U-251
  GI50: > 10 µM (inactive)
UACC-257
  GI50: > 10 µM (inactive)
UACC-62
  GI50: > 10 µM (inactive)

Reference: ChEMBL document CHEMBL1201862, “PubChem BioAssay data set” (2004)
